Results: PubChem BioAssay AID330 (DTP/NCI, 2004)
Several values for one entry are separate records, joined by “and”; a condition that tells them apart may be missing. Identical values can stand only once. Inconclusive results and toxic doses are left out.

Tested on: P388 leukemia ip, CD2F1 mice, survival T/C
Assay: NCI In Vivo Anticancer Drug Screen. Data for tumor model P388 Leukemia (intraperitoneal) in CD2F1 (CDF1) mice
Details: endpoint: median survival time, higher = longer survival
Method in brief: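 Mice carrying the transplanted tumor received test compound or vehicle. Survival was recorded in each group, and the value is the treated-group measurement divided by that of the vehicle-treated control group.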

[1] = dose: 50.0 mg/kg/injection, schedule: Q01DX009 (ip), vehicle: Klucel (hydroxypropylcellulose) (HPC)
[2] = dose: 100.0 mg/kg/injection, schedule: Q01DX009 (ip), vehicle: Klucel (hydroxypropylcellulose) (HPC)
[3] = dose: 50.0 mg/kg/injection, schedule: Q01DX009 (ip), vehicle: saline with Tween-80
[4] = dose: 100.0 mg/kg/injection, schedule: Q01DX009 (ip), vehicle: saline with Tween-80

## CCCCCCCCCSc1nc2ccc(NC(=O)/C=C/C(=O)O)cc2s1
dose: 12.5 mg/kg/injection, schedule: Q01DX009 (ip), vehicle: Klucel (hydroxypropylcellulose) (HPC)
  T/C: 97 % of control
dose: 25.0 mg/kg/injection, schedule: Q01DX009 (ip), vehicle: Klucel (hydroxypropylcellulose) (HPC)
  T/C: 107 % of control
[1]
  T/C: 106 % of control and 107 % of control
[2]
  T/C: 113 % of control

## NC(N)=N/N=C/c1ccc(-c2cc3ccc(/C=N/N=C(N)N)cc3s2)cc1
dose: 12.5 mg/kg/injection, schedule: Q01DX005 (ip), vehicle: Klucel (hydroxypropylcellulose) (HPC)
  T/C: 114 % of control
dose: 25.0 mg/kg/injection, schedule: Q01DX005 (ip), vehicle: Klucel (hydroxypropylcellulose) (HPC)
  T/C: 116 % of control
dose: 50.0 mg/kg/injection, schedule: Q01DX005 (ip), vehicle: Klucel (hydroxypropylcellulose) (HPC)
  T/C: 121 % of control
dose: 100.0 mg/kg/injection, schedule: Q01DX005 (ip), vehicle: Klucel (hydroxypropylcellulose) (HPC)
  T/C: 118 % of control
dose: 200.0 mg/kg/injection, schedule: Q01DX005 (ip), vehicle: Klucel (hydroxypropylcellulose) (HPC)
  T/C: 107 % of control

## OC(C(=S)N1CCCC1)(c1ccccc1)c1ccccc1
[1]
  T/C: 103 % of control
[2]
  T/C: 103 % of control
dose: 200.0 mg/kg/injection, schedule: Q01DX009 (ip), vehicle: Klucel (hydroxypropylcellulose) (HPC)
  T/C: 100 % of control

## COc1ccc(C(c2c(O)c3ccccc3oc2=O)N2CCOCC2)cc1 (stereo not drawn)
dose: 15.0 mg/kg/injection, schedule: Q01DX005 (ip), vehicle: saline with Tween-80
  T/C: 99 % of control
dose: 30.0 mg/kg/injection, schedule: Q01DX005 (ip), vehicle: saline with Tween-80
  T/C: 97 % of control
dose: 60.0 mg/kg/injection, schedule: Q01DX005 (ip), vehicle: saline with Tween-80
  T/C: 100 % of control and 94 % of control

## O=C1NC(=O)C2C1C1C(=O)NC(=O)C21 (stereo not drawn)
dose: 25.0 mg/kg/injection, schedule: Q01DX009 (ip), vehicle: saline with Tween-80
  T/C: 94 % of control
[3]
  T/C: 94 % of control
[4]
  T/C: 103 % of control

## COc1cc(C2NCCc3cc4c(cc32)OCO4)cc(OC)c1OC (stereo not drawn)
dose: 50.0 mg/kg/injection, schedule: Q01DX005 (ip), vehicle: saline with Tween-80
  T/C: 100 % of control
dose: 100.0 mg/kg/injection, schedule: Q01DX005 (ip), vehicle: saline with Tween-80
  T/C: 100 % of control

## CCOC(=O)c1c(C#N)c2ccccc2n1O
dose: 25.0 mg/kg/injection, schedule: Q01DX001 (ip), vehicle: distilled water + Tween-80
  T/C: 110 % of control
dose: 50.0 mg/kg/injection, schedule: Q01DX001 (ip), vehicle: distilled water + Tween-80
  T/C: 106 % of control
dose: 100.0 mg/kg/injection, schedule: Q01DX001 (ip), vehicle: distilled water + Tween-80
  T/C: 110 % of control
dose: 100.0 mg/kg/injection, schedule: Q01DX001 (ip), vehicle: saline with Tween-80
  T/C: 97 % of control
dose: 400.0 mg/kg/injection, schedule: Q01DX001 (ip), vehicle: saline with Tween-80
  T/C: 99 % of control

## O=C(CCN1CC1)OCCOC(=O)CCN1CC1
dose: 25.0 mg/kg/injection, schedule: Q04DX003 (ip), vehicle: saline
  T/C: 159 % of control
dose: 50.0 mg/kg/injection, schedule: Q04DX003 (ip), vehicle: saline with Tween-80
  T/C: 150 % of control
dose: 50.0 mg/kg/injection, schedule: Q04DX003 (ip), vehicle: saline
  T/C: 181 % of control
dose: 75.0 mg/kg/injection, schedule: Q04DX003 (ip), vehicle: saline with Tween-80
  T/C: 166 % of control

## NC(=S)N/N=C/c1nc2ccccn2c1[N+](=O)[O-]
[2]
  T/C: 86 % of control

## Clc1ccc(CSc2cnnc3ccccc23)c(Cl)c1
dose: 75.0 mg/kg/injection, schedule: Q01DX009 (ip), vehicle: suspension in saline
  T/C: 96 % of control
dose: 150.0 mg/kg/injection, schedule: Q01DX009 (ip), vehicle: suspension in saline
  T/C: 89 % of control
dose: 300.0 mg/kg/injection, schedule: Q01DX009 (ip), vehicle: suspension in saline
  T/C: 89 % of control

## C=CC(=NC(C)(C)C)Nc1ccc(C(=O)OCC)cc1
[3]
  T/C: 113 % of control
[4]
  T/C: 106 % of control

## OC(CCl)CN1CC[N+]2(CC1)CC[N+]1(CCN(CC(O)CCl)CC1)CC2 (stereo not drawn)
dose: 25.0 mg/kg/injection, schedule: Q01DX005 (ip), vehicle: water
  T/C: 100 % of control
dose: 25.0 mg/kg/injection, schedule: Q01DX005 (iv), vehicle: water
  T/C: 103 % of control
dose: 25.0 mg/kg/injection, schedule: Q01DX009 (sc), vehicle: water
  T/C: 97 % of control
dose: 25.0 mg/kg/injection, schedule: Q03HX008 (ip), vehicle: water
  T/C: 106 % of control
dose: 25.0 mg/kg/injection, schedule: Q03HX016 (ip), vehicle: water
  T/C: 100 % of control
dose: 25.0 mg/kg/injection, schedule: Q03HX024 (ip), vehicle: water
  T/C: 113 % of control
dose: 50.0 mg/kg/injection, schedule: Q01DX005 (ip), vehicle: water
  T/C: 101 % of control and 92 % of control
dose: 50.0 mg/kg/injection, schedule: Q01DX005 (iv), vehicle: water
  T/C: 102 % of control and 105 % of control
dose: 50.0 mg/kg/injection, schedule: Q01DX009 (ip), vehicle: water
  T/C: 98 % of control
dose: 50.0 mg/kg/injection, schedule: Q01DX009 (sc), vehicle: water
  T/C: 104 % of control
dose: 50.0 mg/kg/injection, schedule: Q03HX008 (ip), vehicle: water
  T/C: 103 % of control
dose: 50.0 mg/kg/injection, schedule: Q03HX016 (ip), vehicle: water
  T/C: 118 % of control
dose: 50.0 mg/kg/injection, schedule: Q03HX024 (ip), vehicle: water
  T/C: 121 % of control
dose: 100.0 mg/kg/injection, schedule: Q01DX005 (ip), vehicle: water
  T/C: 109 % of control and 98 % of control
dose: 100.0 mg/kg/injection, schedule: Q01DX005 (iv), vehicle: water
  T/C: 100 % of control and 101 % of control
dose: 100.0 mg/kg/injection, schedule: Q01DX009 (ip), vehicle: water
  T/C: 103 % of control
dose: 100.0 mg/kg/injection, schedule: Q01DX009 (oral), vehicle: water
  T/C: 99 % of control
dose: 100.0 mg/kg/injection, schedule: Q01DX009 (sc), vehicle: water
  T/C: 106 % of control
dose: 100.0 mg/kg/injection, schedule: Q03HX008 (ip), vehicle: water
  T/C: 114 % of control
dose: 100.0 mg/kg/injection, schedule: Q03HX024 (ip), vehicle: water
  T/C: 123 % of control
dose: 100.0 mg/kg/injection, schedule: Q04DX003 (ip), vehicle: water
  T/C: 92 % of control
dose: 200.0 mg/kg/injection, schedule: Q01DX001 (ip), vehicle: water
  T/C: 95 % of control
dose: 200.0 mg/kg/injection, schedule: Q01DX005 (ip), vehicle: water
  T/C: 102 % of control and 115 % of control
dose: 200.0 mg/kg/injection, schedule: Q01DX005 (iv), vehicle: water
  T/C: 109 % of control
dose: 200.0 mg/kg/injection, schedule: Q01DX009 (ip), vehicle: water
  T/C: 117 % of control
dose: 200.0 mg/kg/injection, schedule: Q01DX009 (oral), vehicle: water
  T/C: 101 % of control
dose: 200.0 mg/kg/injection, schedule: Q01DX009 (sc), vehicle: water
  T/C: 114 % of control
dose: 200.0 mg/kg/injection, schedule: Q04DX003 (ip), vehicle: water
  T/C: 99 % of control
dose: 200.0 mg/kg/injection, schedule: Q08DX002 (ip), vehicle: water
  T/C: 95 % of control
dose: 400.0 mg/kg/injection, schedule: Q01DX001 (ip), vehicle: water
  T/C: 96 % of control
dose: 400.0 mg/kg/injection, schedule: Q01DX005 (iv), vehicle: water
  T/C: 109 % of control
dose: 400.0 mg/kg/injection, schedule: Q01DX009 (ip), vehicle: water
  T/C: 111 % of control
dose: 400.0 mg/kg/injection, schedule: Q01DX009 (oral), vehicle: water
  T/C: 101 % of control
dose: 400.0 mg/kg/injection, schedule: Q01DX009 (sc), vehicle: water
  T/C: 107 % of control
dose: 400.0 mg/kg/injection, schedule: Q04DX003 (ip), vehicle: water
  T/C: 106 % of control
dose: 400.0 mg/kg/injection, schedule: Q08DX002 (ip), vehicle: water
  T/C: 104 % of control
dose: 800.0 mg/kg/injection, schedule: Q01DX001 (ip), vehicle: water
  T/C: 100 % of control
dose: 800.0 mg/kg/injection, schedule: Q01DX009 (oral), vehicle: water
  T/C: 92 % of control
dose: 800.0 mg/kg/injection, schedule: Q01DX009 (sc), vehicle: water
  T/C: 92 % of control
dose: 800.0 mg/kg/injection, schedule: Q04DX003 (ip), vehicle: water
  T/C: 118 % of control
dose: 800.0 mg/kg/injection, schedule: Q08DX002 (ip), vehicle: water
  T/C: 113 % of control
dose: 1600.0 mg/kg/injection, schedule: Q01DX001 (ip), vehicle: water
  T/C: 119 % of control
dose: 1600.0 mg/kg/injection, schedule: Q08DX002 (ip), vehicle: water
  T/C: 120 % of control
